Test results published in patent US9480627B2, “Long term bacteriostatic compounds and their use in restorative dental materials” (priority 2010, dated 2016).

Experiment: Storage stability in sealed container in 37 C oven for nine months
Conditions: nine month storage period
Description: These ingredients were blended together until homogenous and were allowed to remain in a sealed container in a 37 C oven for nine months.

Zinc pyrithione
stability with acrylic dental adhesives (premature cure on storage): does not cure
